Test results taken from PubChem BioAssay (NCI).
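Five compound concentrations were applied to cells in 96-well plates for 48 hours; endpoints were derived by simple linear interpolation of the resulting dose-response curve. GI50: concentration for 50% inhibition of growth. TGI: total growth inhibition.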

Tests used:
Experiment in all cases: NCI anticancer screen, dose series, 48 h
[1] = tested on: U251 CNS
[2] = tested on: MDA-MB-435
[3] = tested on: BT-549 breast
[4] = tested on: HS 578T breast
[5] = tested on: NCI-H23 lung
[6] = tested on: 786-0 renal
[7] = tested on: ACHN renal
[8] = tested on: UACC-257 melanoma
[9] = tested on: NCI/ADR-RES ovarian
[10] = tested on: MDA-MB-231 breast
[11] = tested on: DU-145 prostate
[12] = tested on: OVCAR-5 ovarian
[13] = tested on: UACC-62 melanoma
[14] = tested on: SNB-75 CNS
[15] = tested on: MALME-3M melanoma
[16] = tested on: SN12C renal
[17] = tested on: TK-10 renal
[18] = tested on: HL-60(TB) leukemia
[19] = tested on: CCRF-CEM leukemia
[20] = tested on: M14 melanoma
[21] = tested on: SF-268 CNS
[22] = tested on: K-562 leukemia
[23] = tested on: HOP-62 NSCLC
[24] = tested on: SF-295 CNS
[25] = tested on: IGROV1 ovarian
[26] = tested on: A549 NSCLC
[27] = tested on: SK-MEL-28 melanoma

CCN(CC)c1ccc2c(c1)Oc1nc(N)c(C#N)c(N)c1C2Sc1ccc(C)cc1 (stereo not drawn)
GI50 [1]: 1200 nM | TGI [1]: 2740 nM | GI50 [2]: 1250 nM | TGI [2]: 2540 nM | GI50 [3]: 1160 nM | TGI [3]: 2500 nM | GI50 [4]: 1590 nM | TGI [4]: 4570 nM | GI50 [5]: 1260 nM | TGI [5]: 2640 nM | GI50 [6]: 1880 nM | TGI [6]: 3450 nM | GI50 [7]: 1580 nM | TGI [7]: 2930 nM | GI50 [8]: 1850 nM | TGI [8]: 3390 nM | GI50 [9]: 2190 nM | TGI [9]: 5040 nM | GI50 [10]: 1450 nM | TGI [10]: 2810 nM | GI50 [11]: 1800 nM | TGI [11]: 3210 nM | GI50 [12]: 1710 nM | TGI [12]: 3120 nM | GI50 [13]: 1670 nM | TGI [13]: 3070 nM | GI50 [14]: 1340 nM | TGI [14]: 2630 nM | GI50 [15]: 1680 nM | TGI [15]: 3060 nM | GI50 [16]: 1680 nM | TGI [16]: 3150 nM | GI50 [17]: 2960 nM | TGI [17]: 4480 nM | GI50 [18]: 564 nM | TGI [18]: 3140 nM | GI50 [19]: 366 nM | TGI [19]: 2110 nM | GI50 [20]: 1570 nM | TGI [20]: 3220 nM | GI50 [21]: 1670 nM | TGI [21]: 3250 nM | GI50 [22]: 2300 nM | TGI [22]: > 100000 nM | GI50 [23]: 1760 nM | TGI [23]: 3290 nM | GI50 [24]: 1750 nM | TGI [24]: 3190 nM | GI50 [25]: 1090 nM | TGI [25]: 2360 nM | GI50 [26]: 1930 nM | TGI [26]: 3840 nM | GI50 [27]: 1700 nM
